Values joined by “and” are separate entries in the source; they are usually repeats but may differ in a detail not shown here. Identical values can stand only once. Like-named read-outs stand apart in the source and are kept apart here.
Key:
[1] = tested on: greenhouse red spider mite (Tetranychus urticae); experiment: Tetranychus urticae spray test, OP-resistant (TETRUR), bean leaf disks; format: in vivo; conditions: bean leaf disks, after 6 days
Outline: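 Efficacy (% mites killed) read 6 days after spraying infested Phaseolus vulgaris leaf disks. Compound preparation: acetone and dimethylformamide solvent, made up in water with 1000 ppm alkylaryl polyglycol ether emulsifier; OP-resistant mite strain, all life stages.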

[2] = log P determination by HPLC on reversed-phase columns (C 18), analogously to OECD Guideline 117; format: physicochemical; conditions: for logP (HCOOH): LC-MS in the acidic range, pH 2.7, 0.1% aqueous formic acid / acetonitrile; for logP (HCOOH) / logP (neutral): HPLC reversed-phase C 18; for logP (neutral): LC-MS in the neutral range, pH 7.8, 0.001 molar aqueous ammonium hydrogencarbonate / acetonitrile; for chromatographic logP: reversed-phase C18 HPLC column
Outline: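 Reversed-phase C18 HPLC per OECD 117 with LC-MS detection and a linear 10→95% acetonitrile gradient. Acidic log P run at pH 2.7 with 0.1% formic acid in both eluents. Neutral log P run at pH 7.8 with 0.001 M aqueous ammonium hydrogencarbonate.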

| chromatographic logP ([2]; acidic range, pH 2.7, 0.1% aqueous formic acid and acetonitrile, read-out: log P[a] / log P(HCOOH)) | chromatographic logP ([2]; neutral range, pH 7.8, 0.001 molar aqueous ammonium hydrogencarbonate and acetonitrile, read-out: log P[b] / log P(neutral)) | Compound | efficacy in % ([1]; application rate 500 g/ha) | logP (HCOOH) [2] | logP (neutral) [2] | efficacy in % ([1]; application rate 100 g/ha) | pest or weed control at 500 g/ha ([1]; Tetranychus urticae, foliar, 144 h, application rate 500 g/ha, read-out: efficacy in %) |
| --- | --- | --- | --- | --- | --- | --- | --- |
| – | – | CCn1c(=O)n(-c2ccc(C)c([S+]([O-])CC(F)(F)F)c2)n(C(C)C)c1=O (centres unmarked) [Example 140] | 90% | 2.56 | 2.54 | – | – |
| – | – | CCn1c(=O)n(-c2cc(SCC(F)(F)F)c(C)cc2F)n(C(C)(C)C)c1=O [Example 142] | 100% | 4.19 | 4.13 | – | – |
| – | – | Cc1cc(F)c(-n2c(=O)n(C(C)C)c(=O)n2C(C)(C)C)cc1SCC(F)(F)F [Example 143] | 100% | – | 4.56 | – | – |
| – | – | CCn1c(=O)n(CC(F)(F)F)n(-c2cc(SCC(F)(F)F)c(C)cc2F)c1=O [Example 145] | 100% | 3.54 | 3.49 | – | – |
| – | – | Cc1cc(F)c(-n2c(=O)n(C(C)(C)C)c(=O)n2CC(F)(F)F)cc1SCC(F)(F)F [Example 147] | 100% | 4.34 | 4.28 | – | – |
| – | – | C=CCn1c(=O)n(CC(F)(F)F)n(-c2cc(SCC(F)(F)F)c(C)cc2F)c1=O [Example 154] | 100% | 3.62 | 3.64 | – | – |
| – | – | Cc1cc(F)c(-n2c(=O)n(-c3ccccc3)c(=O)n2CC(F)(F)F)cc1SCC(F)(F)F [Example 155] | 90% | 3.93 | 3.90 | – | – |
| – | – | Cc1cc(F)c(-n2c(=O)n(CC(F)F)c(=O)n2CC(F)(F)F)cc1SCC(F)(F)F [Example 156] | 90% | 3.44 | 3.51 | – | – |
| – | – | COCCCn1c(=O)n(C)n(-c2cc(SCC(F)(F)F)c(C)cc2F)c1=O [Example 159] | 100% | 2.96 | 2.95 | – | – |
| – | – | CCCn1c(=O)n(C)n(-c2cc(SCC(F)(F)F)c(C)cc2F)c1=O [Example 160] | – | 3.28 | 3.22 | 100% | – |
| – | – | Cc1cc(F)c(-n2c(=O)n(CC3CC3)c(=O)n2C)cc1SCC(F)(F)F [Example 161] | 100% | 3.39 | 3.34 | – | – |
| – | – | Cc1cc(F)c(-n2c(=O)n(-c3ccccc3)c(=O)n2C)cc1SCC(F)(F)F [Example 162] | – | 3.42 | 3.27 | 100% | – |
| – | – | Cc1cc(F)c(-n2c(=O)n(-c3ccccc3)c(=O)n2C)cc1[S+]([O-])CC(F)(F)F (centres unmarked) [Example 163] | 90% | 2.44 | 2.38 | – | – |
| – | – | Cc1cc(F)c(-n2c(=O)n(C3CC3)c(=O)n2CC(F)(F)F)cc1[S+]([O-])CC(F)(F)F (centres unmarked) [Example 164] | 90% | 2.58 | 2.54 | – | – |
| – | – | C=CCn1c(=O)n(C2CC2)c(=O)n1-c1cc([S+]([O-])CC(F)(F)F)c(C)cc1F (centres unmarked) [Example 165] | 90% | 2.32 | 2.30 | – | – |
| – | – | C=CCn1c(=O)n(CC(F)(F)F)n(-c2cc([S+]([O-])CC(F)(F)F)c(C)cc2F)c1=O (centres unmarked) [Example 166] | 90% | 2.72 | 2.89 | – | – |
| – | – | Cc1cc(F)c(-n2c(=O)n(-c3ccccc3)c(=O)n2CC(F)(F)F)cc1[S+]([O-])CC(F)(F)F (centres unmarked) [Example 167] | 90% | 3.05 | 3.01 | – | – |
| – | – | Cc1cc(F)c(-n2c(=O)n(CC(F)F)c(=O)n2CC(F)(F)F)cc1[S+]([O-])CC(F)(F)F (centres unmarked) [Example 168] | 90% | 2.60 | 2.58 | – | – |
| – | – | Cc1cc(F)c(-n2c(=O)n(CC3CC3)c(=O)n2C)cc1[S+]([O-])CC(F)(F)F (centres unmarked) [Example 169] | – | 2.30 | 2.33 | 90% | – |
| – | – | COCCCn1c(=O)n(C)n(-c2cc([S+]([O-])CC(F)(F)F)c(C)cc2F)c1=O (centres unmarked) [Example 170] | 90% | 1.97 | 1.98 | – | – |
| – | – | CCn1c(=O)n(C2CC2)c(=O)n1-c1cc([S+]([O-])CC(F)(F)F)c(C)cc1F (centres unmarked) [Example 171] | 100% | 2.18 | 2.15 | – | – |
| – | – | CCCn1c(=O)n(C2CC2)c(=O)n1-c1cc([S+]([O-])CC(F)(F)F)c(C)cc1F (centres unmarked) [Example 172] | 90% | 2.46 | 2.42 | – | – |
| – | – | Cc1cc(F)c(N2C(=O)C(C)(C)C(=O)N2c2ccccc2)cc1SCC(F)(F)F [Example 173] | 90% | 3.64 | 3.58 | – | – |
| 2.84 | 2.79 | Cc1cc(F)c(N2C(=O)C(C)(C)C(=O)N2C)cc1SCC(F)(F)F [Example 174, 1-{2-Fluoro-4-methyl-5-[(2,2,2-trifluoroethyl)sulfanyl]phenyl}-2,4,4-trimethylpyrazolidine-3,5-dione] | – | – | – | – | 100% |

| chromatographic logP ([2]; acidic range, pH 2.7, 0.1% aqueous formic acid and acetonitrile, read-out: log P[a] / log P(HCOOH)) | chromatographic logP ([2]; neutral range, pH 7.8, 0.001 molar aqueous ammonium hydrogencarbonate and acetonitrile, read-out: log P[b] / log P(neutral)) | Compound | efficacy in % ([1]; application rate 500 g/ha) | logP (HCOOH) [2] | logP (neutral) [2] | efficacy in % ([1]; application rate 100 g/ha) | pest or weed control at 500 g/ha ([1]; Tetranychus urticae, foliar, 144 h, application rate 500 g/ha, read-out: efficacy in %) |
| --- | --- | --- | --- | --- | --- | --- | --- |
| – | – | CCC1(CC)C(=O)N(C)N(c2cc(SCC(F)(F)F)c(C)cc2F)C1=O [Example 175] | 100% | 3.41 | 3.40 | – | – |
| – | – | CCC1(CC)C(=O)N(C)N(c2cc([S+]([O-])CC(F)(F)F)c(C)cc2F)C1=O (centres unmarked) [Example 176] | 100% | 2.37 | 2.31 | – | – |
| – | – | Cc1cc(F)c(N2C(=O)C(C)(C)C(=O)N2Cc2ccccc2)cc1SCC(F)(F)F [Example 178] | 100% | 3.80 | 3.76 | – | – |
| – | – | Cc1cc(F)c(N2C(=O)C3(CCC3)C(=O)N2C)cc1[S+]([O-])CC(F)(F)F (centres unmarked) [Example 180] | 100% | 1.99 | 1.97 | – | – |
| – | – | Cc1cc(F)c(N2C(=O)C(=O)N(C3CC3)C2=O)cc1[S+]([O-])CC(F)(F)F (centres unmarked) [Example 183] | 100% | 2.31 | – | – | – |
| – | – | Cc1cc(C)c([S+]([O-])CC(F)(F)F)cc1N1C(=O)C(=O)N(CC(F)F)C1=O (centres unmarked) [Example 184] | 100% | 2.44 | – | – | – |
| – | – | Cc1cc(C)c(N2C(=O)C(=O)N(CC(F)(F)F)C2=S)cc1SCC(F)(F)F [Example 187] | 90% | 4.21 | – | – | – |
| – | – | Cc1cc(C)c([S+]([O-])CC(F)(F)F)cc1N1C(=O)C(=O)N(CC(F)(F)F)C1=S (centres unmarked) [Example 188] | 90% | 3.18 | – | – | – |
| – | – | Cc1cc(F)c(N2C(=O)C(=O)N(CC(F)(F)F)C2=S)cc1SCC(F)(F)F [Example 189] | 90% | 3.95 | – | – | – |
| – | – | Cc1cc(F)c(N2C(=O)C(=O)N(CC(C)C)C2=S)cc1SCC(F)(F)F [Example 191] | 100% | 4.62 | 4.54 | – | – |
| – | – | Cc1cc(F)c(N2C(=O)C(=O)N(CC(C)(C)C)C2=S)cc1SCC(F)(F)F [Example 192] | 90% | 4.89 | 4.80 | – | – |
| – | – | Cc1cc(F)c(N2C(=O)C(=O)N(C(C)(C)C)C2=S)cc1SCC(F)(F)F [Example 193] | 100% and 90% | 4.50 | 4.42 | – | – |
| – | – | Cc1cc(F)c(N2C(=O)C(=O)N(CC(C)C)C2=S)cc1[S+]([O-])CC(F)(F)F (centres unmarked) [Example 194] | 90% | 3.56 | 3.53 | – | – |
| – | – | Cc1cc(F)c(N2C(=O)C(=O)N(CC(C)(C)C)C2=S)cc1[S+]([O-])CC(F)(F)F (centres unmarked) [Example 195] | 90% | 3.85 | 3.79 | – | – |
| – | – | Cc1cc(F)c(N2C(=O)C(=O)N(C(C)(C)C)C2=S)cc1[S+]([O-])CC(F)(F)F (centres unmarked) [Example 196] | 90% | 3.45 | 3.41 | – | – |
| – | – | CCCCN1CC(=O)N(c2cc(SCC(F)(F)F)c(C)cc2F)C1=O [Example 202] | 100% | 3.39 | 3.35 | – | – |
| – | – | CCCCN1CC(=O)N(c2cc([S+]([O-])CC(F)(F)F)c(C)cc2F)C1=O (centres unmarked) [Example 203] | 90% | 2.47 | 2.43 | – | – |
| – | – | Cc1cc(F)c(N2C(=O)CN(Cc3ccccc3)C2=O)cc1SCC(F)(F)F [Example 204] | 100% | 3.49 | 3.48 | – | – |
| – | – | Cc1cc(F)c(N2C(=O)CN(Cc3ccccc3)C2=O)cc1[S+]([O-])CC(F)(F)F (centres unmarked) [Example 205] | 90% | 2.60 | 2.52 | – | – |
| – | – | Cc1cc(F)c(N2C(=O)N(C)C(=O)C2C)cc1SCC(F)(F)F (centres unmarked) [Example 212] | 90% | 2.92 | – | – | – |
| – | – | Cc1cc(F)c(N2C(=O)N(C)C(=O)C2C)cc1[S+]([O-])CC(F)(F)F (centres unmarked) [Example 213] | 100% | 1.91 | – | – | – |
| – | – | Cc1cc(F)c(N2C(=O)N(C3CC3)C(=O)C2C)cc1SCC(F)(F)F (centres unmarked) [Example 214] | 100% | 3.12 | – | – | – |
| – | – | Cc1cc(F)c(N2C(=O)N(C3CC3)C(=O)C2C)cc1[S+]([O-])CC(F)(F)F (centres unmarked) [Example 215] | 100% | 2.15 | – | – | – |
